Experiment: Susceptibility of montelukast sodium to degradation
Type: physicochemical

Susceptibility to oxidative degradation (including atmospheric oxygen) (significant increase in mok-3 sulfoxide impurity): highly susceptible
Susceptibility to acid hydrolysis (significant increase in styrene impurity): highly susceptible
Compound: CC(C)(O)c1ccccc1CC[C@@H](SCC1(CC(=O)O)CC1)c1cccc(/C=C/c2ccc3ccc(Cl)cc3n2)c1 [Montelukast sodium, [R-(E)]-1-[[[1-[3-[2-(7-chloro-2-quinolinyl)ethenyl]phenyl]-3-[2-(1-hydroxy-1-methylethyl)phenyl]propyl]thio]methyl]cyclopropaneacetic acid]
